Measured values from patent US20040138241A1, “Novel use of arylethenesulfonamide derivative” (priority 2001, published 2004).
Where a name gives a salt, the structure may show the parent alone. Read-outs that look alike come from different tables or passages of the source.

Key:
[1] = system: prostatic urethral pressure in anesthetized dogs; format: in vivo, dog; conditions: for EC50 value of increase of PUP, reduced into molar concentration: i.a. local administration, mean±standard error
Experimental: After waiting for stabilization of hemodynamics following the operation, the balloon was fixed to the prostatic urethra and expanded, and a prostatic urethral pressure (PUP) was measured from a change in pressure within the balloon.
ET-1 (from 0.006 to 0.8 μg/kg i.a., molar concentration: from 0.0025 to 0.321 nmol/kg i.a.) and phenylephrine hydrochloride (from 0.06 to 8 μg/kg i.a.; molar concentration: from 0.307 to 39.3 nmol/kg i.a.) were locally administered, thereby comparing the dose-response curve of an increasing action of PUP by the drugs.
In the experiments, dogs in which a degree of increase of PUP was observed 40 cmH2O or more in the pre-contraction with phenylephrine hydrochloride (8 μg/kg i.a.) were used.

[2] = system: urethral pressure in anesthetized dogs; assay: ET-1 induced increase of urethral pressure in the presence of α1 receptor blocker in anesthetized dog; format: in vivo; conditions: tamsulosin hydrochloride 10 μg/kg i.v.
Experimental: A urethral pressure profile (UPP) was recorded according to the same operation method as in Test Example 3 .
Thirty minutes thereafter, the same amount of tamsulosin hydrochloride (10 μg/kg i.v.) was again intravenously administered.

[3] = system: urethral pressure in anesthetized dogs
Text: Male beagle dogs (body weight: from 8 to 13 kg) were subjected to artificial ventilation under the anesthesia with pentobarbital, a catheter was inserted into a left femoral artery for measurement of blood pressure and heart rate and a left femoral vein for administration of drug. A catheter for measurement of urethral pressure (from 8 to 10Fr, 2 holes, manufactured by Create Medic Co., Ltd.) was inserted from an external urethral meatus toward urinary bladder. An automatic syringe pump was connected with one end of the catheter, and a pressure transducer was connected with the other end thereof. […] At the same time, by drawing out the catheter from the urinary bladder into the external urethral meatus at a rate of 25 mm/min by an automatic drawing unit, the pressure was measured and recorded throughout urethra as a urethral pressure profile (UPP) as shown in FIG. 6.
In the blood pressure-response by ET-1 since the pressure increased after a transient reduction of pressure, measurement of the urethral pressure was started about 3 minutes after the administration. On the other hand, as phenylephrine hydrochloride caused an increase of pressure immediately after the administration, measurement of the urethral pressure was started immediately after the administration.
Three minutes after the administration, ET-1 (1 μg/kg) was again intravenously administered, and an action against the urethral pressure was studied similarly to the time of single administration.

[4] = system: isolated rabbit prostate, urethra and bladder base preparations; assay: Concentration-response of agonists in isolated rabbit lower urinary tract preparations; format: biochemical; conditions: cumulative addition
Experimental: Male Japanese white rabbits (from 3 to 5 kg, available from Kitayama Labes Co., Ltd.) were provided for experiments. Prostate, urethra and bladder were isolated from the rabbit to prepare ring preparations of smooth muscle. With respect to the bladder, a dorsal region of the bladder base was used as preparation. Each of the preparations was suspended in an organ bath filled with a Krebs-Henselit solution at 37 ° C., into which was then aerated a 95% O2-5% CO2 gas. A resting tension was subjected as 1g, and a tension change was isometrically measured. Incidentally, the organ bath for preventing adsorption of ET-1 was previously subjected to silicon treatment. After elapse of an equilibrium period for 60 minutes, the preparation was contracted twice by 10 μM phenylephrine hydrochloride to be stabilized the responsibility, and a main experiment was started.
ET-1 (from 0.1 to 1,000 nM), phenylephrine hydrochloride (from 0.01 to 100 μM), S6c (from 1 to 1,000 nM), or acetylcholine (from 0.01 to 1,000 μM) was cumulatively added to the organ bath to obtain a concentration-response curve. […] The contraction response to each agonists was expressed while defining the contraction by phenylephrine hydrochloride (10 μM) as obtained immediately therebefore as 100%.

[5] = ET-1 1 μg/kg i.v., phenylephrine hydrochloride 30 μg/kg i.v.

CC[C@H](C)[C@H](NC(=O)[C@H](CC(=O)O)NC(=O)[C@H](CC(C)C)NC(=O)[C@H](Cc1cnc[nH]1)NC(=O)[C@@H]1CSSC[C@H](N)C(=O)N[C@@H](CO)C(=O)N[C@H]2CSSC[C@H](NC(=O)[C@H](CCC(=O)O)NC(=O)[C@H](CCCCN)NC(=O)[C@H](CC(=O)O)NC(=O)[C@H](CCSC)NC(=O)[C@H](CC(C)C)NC(=O)[C@H](CO)NC(=O)[C@H](CO)NC2=O)C(=O)N[C@@H](C(C)C)C(=O)N[C@@H](Cc2ccc(O)cc2)C(=O)N[C@@H](Cc2ccccc2)C(=O)N1)C(=O)N[C@H](C(=O)N[C@@H](Cc1c[nH]c2ccccc12)C(=O)O)[C@@H](C)CC [ET-1]
duration of increase response of PUP relative to phenylephrine hydrochloride ([1]; ET-1 0.4 μg/kg i.a. vs phenylephrine hydrochloride 2 μg/kg i.a., typical example): about 3 times
concentration for increasing action of prostatic urethral pressure, times lower than phenylephrine hydrochloride ([1]; anesthetized dog, i.a.): about 100 times
maximum response of PUP, of that of phenylephrine hydrochloride ([1]; anesthetized dog, i.a.): 43.9 ±5.2%
EC50 value of increase of PUP, reduced into molar concentration ([1]; anesthetized dog): 0.08 ± 0.03 nmol/kg
action on urethral pressure in the presence of tamsulosin hydrochloride ([2]; ET-1 1 μg/kg i.v.): increased the urethral pressure of the whole of lower urinary tract including prostate
action on urethral pressure (UPP) [3, 5]: remarkable increase of the pressure throughout urethra other than prostate in addition to an increase of the urethral pressure of prostate
action on mean blood pressure ([3]; dog, in vivo, iv): without substantially affecting the mean blood pressure

CNC[C@H](O)c1cccc(O)c1 [phenylephrine hydrochloride]
EC50 value of increase of PUP, reduced into molar concentration ([1]; anesthetized dog): 7.47 ± 2.82 nmol/kg
degree of increase of PUP relative to ET-1 ([1]; phenylephrine hydrochloride 2 μg/kg i.a. vs ET-1 0.4 μg/kg i.a., typical example): higher about twice
action on mean blood pressure [3, 5]: increase of mean blood pressure
action on urethral pressure (UPP) [3, 5]: remarkable increase of the urethral pressure of prostate

CCOc1ccccc1OCCN[C@H](C)Cc1ccc(OC)c(S(N)(=O)=O)c1 [tamsulosin hydrochloride]
action on prostatic urethral pressure ([2]; anesthetized dogs): reduced the prostatic urethral pressure

sarafotoxin S6c [Compound S6c]
contraction of isolated preparations (in words) [4]: not substantially observed
